From US12655150B2 (Cedilla Therapeutics, Inc., priority 2021, dated 2026)

test system: NCI-H226; experiment: 72H TEAD Proliferation Assay (Cell Titer Glo 2.0); type: cell-based; settings: Homo sapiens, NCI-H226, 72 h, CTG 2.0, cell line not given (NCI-H226 responsive, NCI-H28 non-responsive)
Procedure: 72H TEAD Proliferation Assay.
The effect of TEAD inhibition on cell proliferation was assayed using Cell Titer Glo (CTG) 2.0 to measure response in mesothelioma cell lines NCI-H226 (ATCC, #CRL-5826) and NCI-H28 (ATCC, #CRL-5820).
The 72H TEAD Proliferation assay utilizes Cell Titer-Glo 2.0 (Promega, #G9243) to measure the proliferation of cells in the presence or absence of compound. Cell Titer-Glo 2.0 determines the amount of viable cells by quantifying ATP (an indication of metabolically active cells). It utilizes the conversion of Luciferin to Oxyluciferin and a luminescent signal with the use of ATP to report the quantity of viable cells in culture. Within cells that are continually growing, ATP is being synthesized to meet their metabolic demands, meanwhile the opposite is true for cells that are dying or slowing down their proliferation and either no longer using ATP or are using less, respectively. The NF2-deficient NCI-H226 has been genetically validated as a cell line that is sensitive to TEAD inhibition. The NF2-wild type NCI-H28 has been genetically validated as a cell line that is not sensitive to TEAD inhibition and grows independently of TEAD activity.
Compounds were screened against the responsive NCI-H226 cell line to assess the compounds' ability to inhibit TEAD and cell growth. Compounds were also screened against the non-responsive NCI-H28 cell line to ascertain whether the inhibition of cell growth was due to inhibition of the target TEAD or whether the inhibition was due to off-target cytotoxicity.
• 1) Assay ready plates (ARPs) were prepared by Echo acoustic liquid handler. […] After CTG addition, plates were placed on shaker at 800 RPM for 15 minutes at room temperature and kept in the dark. Luminescence was measured using EnVision multilabel plate reader with ultra-sensitive detection module. • 9) Data Analysis: First background luminescence (no CTG wells) was subtracted from luminescence reading of all wells, then TO luminescence was subtracted from T72 luminescence. To compare anti-proliferative effect of compounds, GI50 was obtained by fitting dose response curves with nonlinear regression curve fit.

For `C=CC(=O)NC1CCN(c2cn3ccnc3c(-c3ccc(C(F)(F)F)cc3)n2)C1` (centres unmarked) [I-227, N-(1-(8-(4-(trifluoromethyl)phenyl)imidazo[1,2-a]pyrazin-6-yl)pyrrolidin-3-yl)acrylamide], which GI50 is on record?
Its GI50 is ≤ 1 µM.

How did the GI50 turn out when `C=CC(=O)Nc1ccc2c(c1)nc(-c1ccc(C(C)(C)C)cc1)c1cccn12` [I-119, N-(4-(4-(tert-butyl)phenyl)pyrrolo[1,2-a]quinoxalin-7-yl)acrylamide] was run?
Its GI50 is ≤ 1 µM.

`CC(C)(C)c1ccc(-c2cnc3ccc(-c4nnn[nH]4)cc3n2)cc1` [I-160, 2-(4-(tert-Butyl)phenyl)-7-(1H-tetrazol-5-yl)quinoxaline] was tested. Which GI50 did it give?
Its GI50 is > 10 µM.

For `O=C(O)c1ccc2c(c1)nc(N1CCC(F)(F)CC1)c1cccn12` [I-39, 4-(4,4-Difluoropiperidin-1-yl) pyrrolo[1,2-a]quinoxaline-7-carboxylic acid], which GI50 is on record?
The GI50 was > 10 µM.

How did the GI50 turn out when `O=C(O)c1ccc2c(c1)nc(C1CC1)c1nccn12` [I-70, 4-Cyclopropylimidazo[1,2-a]quinoxaline-7-carboxylic acid] was run?
The GI50 was > 10 µM.

With `CC(C)(C)c1ccc(-c2nc(/C=C/C#N)cn3ccnc23)cc1` [I-154, (E)-3-(8-(4-(tert-Butyl)phenyl)imidazo[1,2-a]pyrazin-6-yl)acrylonitrile] as the molecule, how does the GI50 read?
The GI50 was 1 to 5 µM.

`COc1cc(-c2ccc(C(F)(F)F)cc2)nc2cc(C(=O)N[C@@H](C)CO)ccc12` [I-325, (S)—N-(1-hydroxypropan-2-yl)-4-methoxy-2-(4-(trifluoromethyl)phenyl)quinoline-7-carboxamide] was tested. Which GI50 did it give?
The GI50 was ≤ 1 µM.

How did the GI50 turn out when `O=C(O)c1ccc2c(c1)nc(NC1CCC(C(F)(F)F)CC1)c1cccn12` (centres unmarked) [I-18, 4-((4-(Trifluoromethyl)cyclohexyl)amino)pyrrolo[1,2-a]quinoxaline-7-carboxylic acid] was run?
Its GI50 is 1 to 5 µM.

For `COc1cn2ccnc2c(-c2ccc(C(C)(C)C)cc2)n1` [I-149, 8-(4-(tert-Butyl)phenyl)-6-methoxyimidazo[1,2-a]pyrazine], which GI50 is on record?
Its GI50 is > 10 µM.

Which GI50 does the source give for `Cc1cc(-c2ccc(C(F)(F)F)cc2)nc2cc(C(=O)N[C@@H](C)COC(F)(F)F)ccc12` [I-264, (S)-4-methyl-N-(1-(trifluoromethoxy)propan-2-yl)-2-(4-(trifluoromethyl)phenyl)quinoline-7-carboxamide] here?
Its GI50 is 1 to 5 µM.

For `Cc1cn2cc(CNC(=O)/C=C/CF)nc(-c3ccc(C(F)(F)F)cc3)c2n1` [I-248, (E)-4-fluoro-N-((2-methyl-8-(4-(trifluoromethyl)phenyl)imidazo[1,2-a]pyrazin-6-yl)methyl)but-2-enamide], which GI50 is on record?
The GI50 was ≤ 1 µM.

For `Cc1cc(-c2ccc(C(F)(F)F)cc2)nc2cc(C(=O)NCCO)ccc12` [I-259, N-(2-hydroxyethyl)-4-methyl-2-(4-(trifluoromethyl)phenyl)quinoline-7-carboxamide], which GI50 is on record?
Its GI50 is ≤ 1 µM.

`COc1cc(-c2ccc(C(F)(F)F)cc2)nc2cc(C(=O)N[C@@H](C)c3ccccn3)ccc12` [I-327, (S)-4-methoxy-N-(1-(pyridin-2-yl)ethyl)-2-(4-(trifluoromethyl)phenyl)quinoline-7-carboxamide] was tested. Which GI50 did it give?
The GI50 was ≤ 1 µM.

Which GI50 does the source give for `CC(C)(C)c1ccc(-c2ncn3cc(C(=O)O)ccc23)cc1` [I-144, 1-(4-(tert-Butyl)phenyl)imidazo[1,5-a]pyridine-6-carboxylic acid] here?
The GI50 was > 10 µM.

Which GI50 does the source give for `COc1cc(-c2ccc(C(F)(F)F)cc2)nc2cc(-c3ccccn3)ccc12` [I-418, 4-Methoxy-7-(pyridin-2-yl)-2-(4-(trifluoromethyl)phenyl)quinoline] here?
The GI50 was 5 to 10 µM.

For `COc1cc(-c2ccc(C(F)(F)F)cc2)nc2cc(C(=O)N[C@@H](CO)CC(C)C)ccc12` [I-370, (R)—N-(1-hydroxy-4-methylpentan-2-yl)-4-methoxy-2-(4-(trifluoromethyl)phenyl)quinoline-7-carboxamide], which GI50 is on record?
Its GI50 is 1 to 5 µM.

`COc1cc(-c2ccc(C(F)(F)F)cc2)nc2cc(C(=O)N3CCC[C@@H]3CO)ccc12` [I-371, (R)-(2-(hydroxymethyl)pyrrolidin-1-yl) (4-methoxy-2-(4-(trifluoromethyl)phenyl)quinolin-7-yl)methanone] was tested. Which GI50 did it give?
The GI50 was 5 to 10 µM.
